The values that follow come from patent US12318398B2, “MST1 kinase inhibitor and use thereof” (priority 2018, dated 2025).

Data set [1] has as its target T1, MST1 (Homo sapiens (Human), UniProt Q13043). Particulars: literature; read-out: IC50 against MST1; cited from earlier work.
Data set [2] concerns the target MAP3K2 (Homo sapiens (Human), UniProt Q9Y2U5). Particulars: literature; cited from earlier work.
Data set [3] has as its system MIN-6 cells. Briefly: Proliferation of MIN-6 cells (cell counter). Particulars: 1 μM, 72 hours. As to the method: The effects of compound 1 and the control compound XMU-MP-1 on MST1 signaling pathway such as autophosphorylation of MST1, apoptosis signaling pathway such as cleavage of four proteins Caspase9/7/3 and PARP, expression of BIM, BAX, BCL-2, BCL-XL protein, proliferation-related signaling pathway such as autophosphorylation of AKT and ERK, and phosphorylation and protein expression of insulin secretion transcription factor PDX1 were tested in mouse pancreatic β-cells, MIN-6 cells (Hunan Fenghuishengwu technology Co., Ltd.). Compound 1 of different concentrations (0 μM, 0.3 μM, 1 μM, 3 μM in DMSO) and XMU-MP-1 of 1 μM (in DMSO) were used to treat the cell line for 72 hours in a medium with a glucose content of 33.3 mM, respectively. One of the control DMSO group involved 5.5 mM glucose and the other one involved 33.3 mM glucose. The samples were collected.
JIMBIO cell counter (EXCEL HERO TECHNOLOGY LIMITED) was used to detect the effect on the proliferation of MIN-6 cells after 72 hours of the administration.

The subject of data set [4] is TAOK. To be noted: literature; cited from earlier work.
The subject of data set [5] is C57BL/6 mice. Briefly: Liver injury repair experiment (paracetamol/APAP-induced). The format is in vivo. The procedure: C57BL/6 mice, male, 20 g, were maintained in a SPF animal room. Thirty C57BL/6 mice were fasted for 12 hours overnight, and 5 mice of which were intraperitoneally injected with normal saline to act as a normal control group, and the other 25 mice were intraperitoneally injected with paracetamol (APAP) (purchased from Sigma)-600 mg/kg, and randomly divided into 5 groups after 30 minutes, wherein the 5 groups include vehicle (5% DMSO in water), compound 1-1-po, compound 1-2-po, compound 1-4-po, XMU-MP-1-ip groups. Mice in the vehicle group were administered intragastrically with vehicle control; mice in the compound 1-1-po, compound 1-2-po, compound 1-4-po groups were administered intragastrically with compound 1 at 1 mg/kg, 2 mg/kg or 4 mg/kg, respectively; mice in the XMU-MP-1-ip group were intraperitoneally administered with the control compound XMU-MP-1 at 1 mg/kg. After the administration, the body weight of the mice was monitored and the survival status of the mice was observed.

For data set [6], the target named is PIK3CG (Homo sapiens (Human), UniProt P48736). Particulars: literature; cited from earlier work.
PIK3CG, sequence (P48736 whole entry, species assumed): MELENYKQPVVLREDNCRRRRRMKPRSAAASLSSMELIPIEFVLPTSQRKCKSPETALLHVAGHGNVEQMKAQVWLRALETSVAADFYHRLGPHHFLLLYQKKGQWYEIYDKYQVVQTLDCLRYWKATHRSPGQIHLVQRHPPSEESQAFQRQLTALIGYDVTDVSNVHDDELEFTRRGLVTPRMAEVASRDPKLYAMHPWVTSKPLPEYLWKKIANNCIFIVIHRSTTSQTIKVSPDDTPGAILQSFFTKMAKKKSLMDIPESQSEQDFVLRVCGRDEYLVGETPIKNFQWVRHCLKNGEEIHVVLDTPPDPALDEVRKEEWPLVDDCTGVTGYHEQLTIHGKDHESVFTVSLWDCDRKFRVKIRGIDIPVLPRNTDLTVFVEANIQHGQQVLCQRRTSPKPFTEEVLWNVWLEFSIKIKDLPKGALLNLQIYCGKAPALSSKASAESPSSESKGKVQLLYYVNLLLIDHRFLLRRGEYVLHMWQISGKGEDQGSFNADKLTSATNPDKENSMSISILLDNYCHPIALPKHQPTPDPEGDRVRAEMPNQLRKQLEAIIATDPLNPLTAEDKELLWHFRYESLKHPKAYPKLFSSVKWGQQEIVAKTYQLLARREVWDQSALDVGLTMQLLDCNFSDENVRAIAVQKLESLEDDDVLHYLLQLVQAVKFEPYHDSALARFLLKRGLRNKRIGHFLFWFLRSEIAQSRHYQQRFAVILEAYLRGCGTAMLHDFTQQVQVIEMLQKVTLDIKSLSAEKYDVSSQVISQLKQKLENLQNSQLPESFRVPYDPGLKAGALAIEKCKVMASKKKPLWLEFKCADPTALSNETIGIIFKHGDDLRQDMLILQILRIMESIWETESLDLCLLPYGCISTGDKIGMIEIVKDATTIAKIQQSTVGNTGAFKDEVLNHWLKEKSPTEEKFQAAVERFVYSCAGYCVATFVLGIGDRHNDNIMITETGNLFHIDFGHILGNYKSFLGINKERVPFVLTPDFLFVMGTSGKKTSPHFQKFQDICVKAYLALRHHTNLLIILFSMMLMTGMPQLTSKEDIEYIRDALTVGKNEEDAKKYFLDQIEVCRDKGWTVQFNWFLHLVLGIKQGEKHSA
The target of data set [7] is T1, MST1. Briefly: In vitro enzyme activity test (ADP-GLO). The format is biochemical. To be noted: ATP 50 μM, 37° C. 1 hour, read-out: MST1 (IC50/μM). As to the method: The IC50 values of the compounds against MST1 were determined. The protein kinase MST1 and the substrate were obtained from commercial sources.
5.4 μL of protein kinase MST1 diluted to a certain concentration (final concentration was 2.5 ng/μL) and 1 μL of serially diluted drug compounds and control compound XMU-MP-1 were taken to react at room temperature for 10 minutes (final drug concentrations were 10 μM, 1 μM, 0.3 μM, 0.1 μM, 0.03 μM, 0.01 μM, 0.003 μM, 0.001 μM, respectively).
6 μL of a mixture of ATP (with a final reaction concentration of 50 μM) and substrate was added to the above reaction tube to react at 37° C. for 1 hour. The reaction buffer was 40 mM Tris, 7.5; 20 mM MgCl2; 0.1 mg/ml BSA; 50 μM DTT.
5 μL of the kinase mixture after the reaction was taken to a 384-well plate, and 5 μL of ADP-GLO™ reagent was added thereto. After reaction at room temperature for 40 minutes, the kinase reaction was terminated and the remaining ATP was consumed.
10 μL of a kinase detection reagent was added to convert ADP into ATP, and a coupled luciferase/luciferin reaction was utilized to detect the newly synthesized ATP. Envision was used to read and plot the data, and calculate the IC50 value.
A general note: ADP-Glo turns the ADP formed in a reaction into a luminescent signal.

The target of data set [8] is MST2 (Homo sapiens (Human), UniProt Q13188). To be noted: read-out: IC50 against MST2; literature; cited from earlier work.
MST2, sequence (Q13188 whole entry, species assumed): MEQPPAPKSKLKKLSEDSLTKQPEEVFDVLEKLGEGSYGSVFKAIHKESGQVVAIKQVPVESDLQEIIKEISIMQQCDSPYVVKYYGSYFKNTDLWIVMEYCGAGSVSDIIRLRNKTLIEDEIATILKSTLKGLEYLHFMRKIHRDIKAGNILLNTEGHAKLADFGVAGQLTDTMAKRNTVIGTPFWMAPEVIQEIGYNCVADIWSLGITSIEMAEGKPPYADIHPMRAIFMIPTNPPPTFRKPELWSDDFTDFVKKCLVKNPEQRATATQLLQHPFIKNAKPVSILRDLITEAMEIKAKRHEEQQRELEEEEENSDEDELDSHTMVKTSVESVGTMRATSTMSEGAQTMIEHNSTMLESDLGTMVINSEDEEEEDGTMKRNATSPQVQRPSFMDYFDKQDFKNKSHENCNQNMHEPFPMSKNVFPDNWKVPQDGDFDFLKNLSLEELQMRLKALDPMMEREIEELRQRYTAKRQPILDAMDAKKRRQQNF
For data set [9], the target named is AURKA (Homo sapiens (Human), UniProt O14965). Particulars: literature; cited from earlier work.
AURKA, sequence (O14965 whole entry, species assumed): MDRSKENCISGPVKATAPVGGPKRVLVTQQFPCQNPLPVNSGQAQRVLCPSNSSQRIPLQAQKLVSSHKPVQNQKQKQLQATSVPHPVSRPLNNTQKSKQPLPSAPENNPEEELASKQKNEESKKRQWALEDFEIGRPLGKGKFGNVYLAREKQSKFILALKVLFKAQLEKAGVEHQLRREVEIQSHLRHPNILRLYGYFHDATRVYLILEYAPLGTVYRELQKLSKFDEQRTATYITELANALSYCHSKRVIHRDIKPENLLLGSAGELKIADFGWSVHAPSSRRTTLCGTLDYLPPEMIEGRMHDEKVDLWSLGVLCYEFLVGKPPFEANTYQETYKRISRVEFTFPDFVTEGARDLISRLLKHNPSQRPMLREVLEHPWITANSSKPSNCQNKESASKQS

pIC50: −log10 of the molar value. Read-outs that look alike come from different tables or passages of the source.

T1 sequence (Q13043 whole entry): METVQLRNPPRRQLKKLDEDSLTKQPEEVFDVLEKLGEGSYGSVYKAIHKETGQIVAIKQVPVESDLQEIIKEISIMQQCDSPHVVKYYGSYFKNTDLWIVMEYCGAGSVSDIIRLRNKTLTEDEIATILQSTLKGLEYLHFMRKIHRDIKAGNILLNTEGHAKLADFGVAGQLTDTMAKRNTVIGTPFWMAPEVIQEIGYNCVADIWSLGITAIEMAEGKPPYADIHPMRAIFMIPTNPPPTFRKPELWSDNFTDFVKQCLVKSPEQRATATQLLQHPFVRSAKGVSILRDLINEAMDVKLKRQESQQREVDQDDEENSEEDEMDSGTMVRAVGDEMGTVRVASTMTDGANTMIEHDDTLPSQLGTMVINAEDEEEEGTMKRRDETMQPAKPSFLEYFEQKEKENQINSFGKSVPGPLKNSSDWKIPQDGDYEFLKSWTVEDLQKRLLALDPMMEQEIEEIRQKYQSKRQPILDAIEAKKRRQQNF
MAP3K2, sequence (Q9Y2U5 whole entry, species assumed): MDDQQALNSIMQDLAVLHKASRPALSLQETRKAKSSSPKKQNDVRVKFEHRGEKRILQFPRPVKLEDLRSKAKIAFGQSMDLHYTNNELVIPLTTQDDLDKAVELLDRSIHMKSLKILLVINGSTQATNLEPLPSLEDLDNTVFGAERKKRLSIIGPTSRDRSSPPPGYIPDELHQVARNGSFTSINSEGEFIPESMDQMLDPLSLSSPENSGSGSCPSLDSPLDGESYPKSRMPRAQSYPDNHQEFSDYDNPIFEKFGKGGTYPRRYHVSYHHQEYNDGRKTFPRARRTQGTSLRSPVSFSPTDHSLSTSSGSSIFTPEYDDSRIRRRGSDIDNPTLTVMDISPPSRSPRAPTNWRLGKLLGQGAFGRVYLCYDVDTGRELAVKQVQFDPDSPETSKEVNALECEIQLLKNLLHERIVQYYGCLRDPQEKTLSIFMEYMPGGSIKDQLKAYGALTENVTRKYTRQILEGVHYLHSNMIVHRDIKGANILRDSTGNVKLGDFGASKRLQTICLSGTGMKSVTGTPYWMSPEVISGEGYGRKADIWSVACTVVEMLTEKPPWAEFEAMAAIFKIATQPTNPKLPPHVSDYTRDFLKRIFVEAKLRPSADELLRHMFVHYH

Broadly, the pIC50 is −log10 of the IC50, conventionally taken in molar units. Turning to `CN1C(=O)c2sccc2N(C)c2nc(Nc3ccc(S(N)(=O)=O)cc3)ncc21` [XMU-MP-1], in data set [1], the pIC50 was 7.15. Besides, the “inhibitory effect on MAP3K2” value in data set [2] is “significant inhibitory effect”. Also, in data set [3], the number of cells result is “reduced to a certain extent” and the “toxicity to MIN6 cells” value is recorded as “toxic to MIN6 cells to a certain extent”. The “inhibitory effect on TAOK” value in data set [4] is “significant inhibitory effect”. Also, in data set [5] (1 mg/kg intraperitoneally after APAP 600 mg/kg ip), the “survival of the mice” value is reported as “all escaped from death”. In addition, in data set [5] (after APAP 600 mg/kg ip, compound 1 po 1-4 mg/kg, XMU-MP-1 ip 1 mg/kg), the weight of mice result is reported as “can gradually recover”. Also, the “inhibition of PIK3CG” value in [6] is “inhibited”. For the same compound, the IC50 in [7] was determined as 0.121 µM. Further, the pIC50 in data set [8] was 7.42. The “inhibition of AURKA” value in data set [9] was “inhibited”.
